Assay results reported in patent US20180258180A1, “COMBINATION THERAPY INVOLVING ANTIBODIES AGAINST CLAUDIN 18.2 FOR TREATMENT OF CANCER” (Ganymed Pharmaceuticals AG, priority 2012, published 2018).
Blank lines part the entries; values can stand above or below the molecule they belong to.

How the values were obtained:
KatoIII cells [1] = assay: Cell cycle analysis of KatoIII cells treated with cytostatic compounds; type: cell-based, human; conditions: for cell cycle phase in which cells are predominantly arrested/enriched: KatoIII cells, 96 hours; for cell cycle arrest phase: KatoIII cells pretreated for 4 days
Procedure: (§1) KatoIII cells, a human gastric tumor cell line, was cultivated in RPMI 1640 medium (Invitrogen) containing 20% FCS (Perbio) and 2 mM Glutamax (Invitrogen) at 37° C. and 5% CO2, with or without cytostatic compounds. Epirubicin (Pfizer) was tested at a concentration of 10 or 100 ng/ml, 5-FU (Neofluor from NeoCorp AG) was tested at a concentration of 10 or 100 ng/ml, and oxaliplatin (Hospira) was tested at a concentration of 50 or 500 ng/ml. A combination of all 3 compounds (EOF; epirubicin 10 ng/ml, oxaliplatin 500 ng/ml, 5-FU 10 ng/ml) was also used. 8×10^5 KatoIII cells were cultivated for 96 hours without medium change or for 72 hours followed by 24 hours cultivation in standard medium to release cells from cell cycle arrest in a 6-well tissue culture plate at 37° C., 5% CO2. Cells were harvested with EDTA/trypsin, washed and analysed.
Cell cycle stages were determined based on measurement of cellular DNA content. This allows one to discriminate between cells in the G1-, S- or G2-phase of the cell cycle. In the S-phase DNA duplication occurs whereas in the G2-phase cells grow and prepare for mitosis. Cell cycle analysis was done using the CycleTEST PLUS DNA Reagent Kit from BD Biosciences following the manufacturer's protocol. Flow cytometry acquisition and analysis were performed by using BD FACS CantoII (BD Biosciences) and FlowJo (Tree Star) software.
(§2) KatoIII cells were pretreated for 4 days with Irinotecan or Docetaxel and analysed for CLDN18.2 expression and cell cycle arrest.

CLDN18.2 = assay: Extracellular detection of CLDN18.2 on treated KatoIII cells by flow cytometry; type: cell-based, human; conditions: 96 hours, FIG. 1
Procedure: as §1
As secondary reagent goat-anti-huIgG-APC from Dianova was used.

KatoIII cells [2] = assay: IMAB362 induced ADCC / viability of pretreated KatoIII cells (luciferase); type: cell-based, human; conditions: KatoIII pretreated for 3 days; for level of viable cells compared to medium cultivated target cells: Irinotecan 1000 ng/ml, Docetaxel 5 ng/ml, Cisplatin 2000 ng/ml
Procedure: Peripheral blood mononuclear cells (PBMCs) including NK cells, monocytes, mononuclear cells or other effector cells from healthy human donors were purified by Ficoll Hypaque density centrifugation. Washed effector cells were seeded in X-Vivo medium. KatoII cells which express CLDN18.2 endogenously and are of gastric origin were used as target cells in this setting. Target cells stably expressed luciferase, lucifer yellow, which is oxidized by viable cells only.

claudin18.2 = claudin18.2 expression in pretreated KatoIII cells; type: cell-based, human; conditions: KatoIII pretreated for 3 days; Irinotecan 1000 ng/ml, Docetaxel 5 ng/ml, Cisplatin 2000 ng/ml
KatoIII cells [3] = assay: Cell growth of KatoIII cells pretreated with Irinotecan or Docetaxel; type: cell-based, human; conditions: KatoIII cells pretreated for 4 days
From the text: as §2

CLS103 = system: CLS103
Procedure: (§3) Furthermore, human stomach cancer cells (NUGC-4-luciferase) and murine stomach cancer cells (CLS103-calcein stained) were pretreated with or w/o 5 μM ZA for 2 days. Human Vγ9Vδ2 T cells were MACS purified (day 14) and co-cultured with the cancer cells for 24 h. Cytotoxicity of Vγ9V52 T cells towards non-treated and ZA-treated target cells was determined by measuring remaining luciferase activity or calcein fluorescence; cf. FIG. 11b. Target cells (NUGC-4 and CLS103) were pretreated with or w/o 5 μM ZA for 2 days and subsequently incubated for 4 h with mitomycin c ([…]) to stop proliferation. MACS purified human 14d old resting Vγ9V62 T cells and ^3H-thymidine were added to the target cells and co-cultures were incubated for 48 h at 37° C. Proliferation was determined by measuring ^3H thymidine incorporation in the DNA using a MicroBeta scintillation counter. Proliferation of target cells not treated with ZA and w/o Vγ9Vδ2 T cells was set to 100%; cf. FIG. 11c.

NUGC-4 = type: cell-based, human
Procedure: as §3

PBMCs = assay: Expansion of PBMC cultures with ZA/IL-2; type: cell-based, human; conditions: 14 days, 300 U/ml IL-2
Procedure: PBMCs were harvested from healthy human donors and cultures were treated with a single dose of ZA. […] FIG. 8a. […] FIG. 8b. Increase in cell numbers was determined by counting living cells on day 6, 8, 11 and 14.

Vγ9Vδ2 T cells = assay: Enrichment of Vγ9Vδ2 T cells co-cultured with monocytes ± ZA; type: cell-based, human; conditions: co-culture 14 days, ±1 μM ZA
Procedure: The enrichment of Vγ9Vδ2 T cells in the co-cultures after 14 days was determined by multicolor FACS, whereas the expansion of the culture was considered in the calculation. The enrichment factor of Vγ9Vδ2 T cells cultured with monocytes in a 1:4 ratio was set to 100% for each experiment. […] This effect was clearly ZA-dependent; cf. FIG. 11a.

[4] = target: Claudin 18 splice variant 2 (CLDN18.2), human (human)
[5] = system: HEK293~CLDN18.2 transfectants; assay: Early treatment of HEK293~CLDN18.2 tumor xenografts; type: in vivo, nude mice; conditions: isotype control, twice per week for 6 weeks
From the text: Moreover, advanced tumor treatment experiments were initiated up to 9 days after tumor cell inoculation when tumors had reached volumes of about 60-120 mm^3.
Nude mice were subcutaneously inoculated with 1×10^7 HEK293˜CLDN18.2 transfectants. Treatment of 10 mice per group started 3 days after tumor inoculation. […] Not only time to death was prolonged, but 4 of 10 mice survived the entire observation period of 210 days.

NUGC-4 xenografts = assay: Biodistribution of Dyelight 680-labeled antibodies in NUGC-4 xenografted nude mice; conditions: negative control, NUGC-4 negative for CD20

Molecule: O=c1[nH]cc(F)c(=O)[nH]1 [5-FU, 5-fluoro-1H-pyrimidine-2,4-dione]
cell cycle phase in which cells are predominantly arrested/enriched (KatoIII cells [1]): S-phase | CLDN18.2-expression (CLDN18.2): stabilize

Molecule: N.N.[Cl][Pt][Cl] [Cisplatin, cis-diamminedichloroplatinum(II)]
potency of IMAB362 to induce ADCC after pretreatment of target cells (KatoIII cells [2]): augmented | level of viable cells compared to medium cultivated target cells (KatoIII cells [2]): lower level of viable cells | claudin18.2 expression compared to medium cultivated cells (claudin18.2): increased

Molecule: CC(=O)O[C@@]12CO[C@@H]1C[C@H](O)[C@@]1(C)C(=O)[C@H](O)C3=C(C)[C@@H](OC(=O)[C@H](O)[C@@H](NC(=O)OC(C)(C)C)c4ccccc4)C[C@@](O)([C@@H](OC(=O)c4ccccc4)[C@H]21)C3(C)C [Docetaxel, docetaxel]
cell growth (KatoIII cells [3]): dose dependent inhibition | potency of IMAB362 to induce ADCC after pretreatment of target cells (KatoIII cells [2]): augmented | level of viable cells compared to medium cultivated target cells (KatoIII cells [2]): lower level of viable cells | cell cycle arrest phase (KatoIII cells [1]): G2-phase | claudin18.2 expression compared to medium cultivated cells (claudin18.2): increased

Molecule: COc1cccc2c1C(=O)c1c(O)c3c(c(O)c1C2=O)C[C@@](O)(C(=O)CO)C[C@@H]3O[C@H]1C[C@H](N)[C@@H](O)[C@H](C)O1 [Epirubicin]
cell cycle phase in which cells are predominantly arrested/enriched (KatoIII cells [1]): G2-phase | CLDN18.2-expression (CLDN18.2): stabilize

Molecule: CCc1c2c(nc3ccc(OC(=O)N4CCC(N5CCCCC5)CC4)cc13)-c1cc3c(c(=O)n1C2)COC(=O)[C@]3(O)CC [Irinotecan, (S)-4,11-diethyl-3,4,12,14-tetrahydro-4-hydroxy-3,14-dioxo1H-pyrano[3′,4′:6,7]-indolizino[1,2-b]quinolin-9-yl-[1,4′bipiperidine]-1′-carboxylate]
cell growth (KatoIII cells [3]): dose dependent inhibition | potency of IMAB362 to induce ADCC after pretreatment of target cells (KatoIII cells [2]): augmented | level of viable cells compared to medium cultivated target cells (KatoIII cells [2]): lower level of viable cells | cell cycle arrest phase (KatoIII cells [1]): S/G2-phase | claudin18.2 expression compared to medium cultivated cells (claudin18.2): increased

Molecule: O=C1[O][Pt]2([NH][C@@H]3CCCC[C@H]3[NH]2)[O]C1=O [Oxaliplatin, [(1R,2R)-cyclohexane-1,2-diamine](ethanedioato-O,O′)platinum(II)]
cell cycle phase in which cells are predominantly arrested/enriched (KatoIII cells [1]): G1- and G2-phases

Molecule: O=P(O)(O)C(O)(Cn1ccnc1)P(=O)(O)O [ZA, [1-hydroxy-2-(1H-imidazol-1-yl)ethane-1,1-diyl]bis(phosphonic acid)]
activation of Vγ9Vδ2 T cells (cytotoxicity and proliferation) by ZA-pulsed cancer cells (CLS103): failed to elicit these effects | activation of Vγ9Vδ2 T cell cytotoxicity by ZA-pulsed cancer cells (NUGC-4): 5-10 fold | activation of Vγ9Vδ2 T cell proliferation by ZA-pulsed cancer cells (NUGC-4; 5 μM ZA for 2 days, co-culture 48 h, 3H-thymidine): 1.4-1.8 fold | expansion of cells in medium without ZA compared to with ZA (lower) (PBMCs): about 2 fold | enrichment of Vγ9Vδ2 T cells with increase of monocytes, ZA-dependent (Vγ9Vδ2 T cells): more than 10 fold

EC50 (read off the curve), ADCC on KatoIII cells pretreated 3 days with Irinotecan (Irino imab362) [4]: 1 µg/mL | EC50 (read off the curve), ADCC on medium-cultivated KatoIII cells (Med imab362) [4]: 2 µg/mL
Molecule: IMAB362 (antibody)

Molecule: infliximab: isotype control antibody [reference compound]
time within which all mice died [5]: 70 to 80 days

Molecule: rituximab: Dyelight 680-labeled negative control antibody (NUGC-4 negative for CD20) [reference compound]
signal of labeled antibody in NUGC-4 engrafted mice (NUGC-4 xenografts): No signal is detected
